Measured values: the supplement of paper PMC12420376

What was measured:
KURAMOCHI = assay: drug sensitivity score (DSS2) on cancer cell count; higher = more sensitive; extreme values may be limits of the assay; conditions: 72 h
Method in brief: (§1)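 Screen quality was checked by Z', and a drug sensitivity score was derived in Breeze from logistic fits of the cancer cell counts. These counts were obtained by imaging at 10× (4 fields) after fixing and immunostaining for CK8/18 with Hoechst. Before that, ovarian cancer cells, alone or in 1:1 direct co-culture with lung or skin fibroblasts, had been treated for 72 h on 384-well plates acoustically pre-spotted with 528 approved and investigational compounds at 5 concentrations.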

OVCAR8 = assay: as above; conditions: 72 h
Method in brief: as §1

[1] = co-cultured fibroblast: BJHTERT
[2] = co-cultured fibroblast: none (monoculture)

| Structure (SMILES) | drug sensitivity score (KURAMOCHI; [1]) | drug sensitivity score (KURAMOCHI; co-cultured fibroblast: WI38) | drug sensitivity score (KURAMOCHI; [2]) | drug sensitivity score (OVCAR8; [1]) | drug sensitivity score (OVCAR8; co-cultured fibroblast: WI38) | drug sensitivity score (OVCAR8; [2]) |
| --- | --- | --- | --- | --- | --- | --- |
| COCCNCc1ccc(-c2cc3nccc(Oc4ccc(NC(=O)C5(C(=O)Nc6ccc(F)cc6)CC5)cc4F)c3s2)nc1 [Sitravatinib] | 3.1 DSS | 5.8 DSS | 0 DSS | 0 DSS | 1.6 DSS | 1.8 DSS |
| CCOc1cc2ncc(C#N)c(Nc3ccc(OCc4ccccn4)c(Cl)c3)c2cc1NC(=O)/C=C/CN(C)C [Neratinib] | 9 DSS | 3.6 DSS | 1.4 DSS | 7 DSS | 3 DSS | 6 DSS |
| Nc1cc(F)ccc1NC(=O)c1ccc(CNC(=O)/C=C/c2cccnc2)cc1 [Tucidinostat] | 7.6 DSS | 11.2 DSS | 9.7 DSS | 8 DSS | 4.4 DSS | 11.8 DSS |
| CC(C)(C)C[C@@H]1N[C@@H](C(=O)N[C@H]2CC[C@H](O)CC2)[C@H](c2cccc(Cl)c2F)[C@]12C(=O)Nc1cc(Cl)ccc12 | 0 DSS | 0.1 DSS | 0 DSS | 2.5 DSS | 0 DSS | 0 DSS |
| NC(=O)c1cccc(-c2cccc(OC(=O)NC3CCCCC3)c2)c1 [URB597] | 0 DSS | 0 DSS | 0 DSS | 0 DSS | 0 DSS | 0 DSS |
| COc1cc([C@@H]2c3cc4c(cc3[C@@H](O[C@@H]3O[C@@H]5CO[C@@H](c6cccs6)O[C@H]5[C@H](O)[C@H]3O)[C@H]3COC(=O)[C@H]23)OCO4)cc(OC)c1O [Teniposide] | 0 DSS | 0 DSS | 0 DSS | 0 DSS | 0 DSS | 0.4 DSS |
| CC(C)N(C[C@H]1O[C@@H](n2cnc3c(N)ncnc32)[C@H](O)[C@@H]1O)[C@H]1C[C@@H](CCc2nc3cc(C(C)(C)C)ccc3[nH]2)C1 [Pinometostat] | 0 DSS | 0 DSS | 0 DSS | 0 DSS | 0 DSS | 0 DSS |
| C=CC(=O)Nc1cc2c(Nc3ccc(F)c(Cl)c3)ncnc2cc1OCCCN1CCOCC1 [Canertinib] | 9.4 DSS | 9.2 DSS | 24.2 DSS | 9.6 DSS | 8.3 DSS | 9.4 DSS |
| CO[C@@H](C(=O)N1Cc2[nH]nc(NC(=O)c3ccc(N4CCN(C)CC4)cc3)c2C1)c1ccccc1 [Danusertib] | 22.9 DSS | 20.9 DSS | 28.6 DSS | 15 DSS | 19.2 DSS | 21 DSS |
| CN(C)CC#Cc1ccc(OCCCc2sc(N3CCc4cccc(C(=O)Nc5nc6ccccc6s5)c4C3)nc2C(=O)O)c(F)c1 | 4.1 DSS | 6.1 DSS | 6.9 DSS | 4.3 DSS | 0 DSS | 0.7 DSS |
| CS(=O)(=O)CCNCc1ccc(-c2ccc3ncnc(Nc4ccc(OCc5cccc(F)c5)c(Cl)c4)c3c2)o1 [Lapatinib] | 9.2 DSS | 6.8 DSS | 0 DSS | 0.7 DSS | 0 DSS | 0 DSS |
| CCN1CCN(c2ccc(Nc3cc(N(C)C(=O)Nc4c(Cl)c(OC)cc(OC)c4Cl)ncn3)cc2)CC1 [Infigratinib] | 0 DSS | 0 DSS | 0 DSS | 0 DSS | 0 DSS | 0 DSS |
| COc1cc2c(Oc3ccc4[nH]c(C)cc4c3F)ncnc2cc1OCCCN1CCCC1 [Cediranib] | 0 DSS | 0 DSS | 0 DSS | 0 DSS | 0 DSS | 0 DSS |
| CC(C)c1cc(-c2n[nH]c(=O)n2-c2ccc3c(ccn3C)c2)c(O)cc1O [Ganetespib] | 14.8 DSS | 17.1 DSS | 21 DSS | 22.3 DSS | 22.9 DSS | 27.1 DSS |
| COc1cc2ncnc(Nc3ccc(F)c(Cl)c3)c2cc1OCCCN1CCOCC1 [Gefitinib] | 2.9 DSS | 3 DSS | 0 DSS | 5.8 DSS | 0 DSS | 3.7 DSS |
| CC1(C)CCC(CN2CCN(c3ccc(C(=O)NS(=O)(=O)c4ccc(NCC5CCOCC5)c([N+](=O)[O-])c4)c(Oc4cnc5[nH]ccc5c4)c3)CC2)=C(c2ccc(Cl)cc2)C1 [Venetoclax] | 0 DSS | 0 DSS | 0 DSS | 0 DSS | 0 DSS | 2.3 DSS |
| CC(C)NC[C@@H](C(=O)N1CCN(c2ncnc3c2[C@H](C)C[C@H]3O)CC1)c1ccc(Cl)cc1 [Ipatasertib] | 1.5 DSS | 0.5 DSS | 0 DSS | 1.9 DSS | 0 DSS | 1.9 DSS |
| CC(C)n1nc(-c2ccc3oc(N)nc3c2)c2c(N)ncnc21 [Sapanisertib] | 13.5 DSS | 12.4 DSS | 15.1 DSS | 11 DSS | 7.9 DSS | 11.8 DSS |
| CCNC(=O)c1noc(-c2cc(C(C)C)c(O)cc2O)c1-c1ccc(CN2CCOCC2)cc1 [Luminespib] | 19.7 DSS | 20.9 DSS | 22.9 DSS | 28.3 DSS | 29.8 DSS | 29.9 DSS |

| Structure (SMILES) | drug sensitivity score (KURAMOCHI; [1]) | drug sensitivity score (KURAMOCHI; co-cultured fibroblast: WI38) | drug sensitivity score (KURAMOCHI; [2]) | drug sensitivity score (OVCAR8; [1]) | drug sensitivity score (OVCAR8; co-cultured fibroblast: WI38) | drug sensitivity score (OVCAR8; [2]) |
| --- | --- | --- | --- | --- | --- | --- |
| CO[C@H]1C(=O)[C@]2(C)[C@@H](OC)C[C@H]3OC[C@@]3(OC(C)=O)[C@H]2[C@H](OC(=O)c2ccccc2)[C@]2(O)C[C@H](OC(=O)[C@H](O)[C@@H](NC(=O)OC(C)(C)C)c3ccccc3)C(C)=C1C2(C)C [Cabazitaxel] | 27.5 DSS | 27.8 DSS | 21.4 DSS | 39.1 DSS | 36 DSS | 26 DSS |
| O=C(Nc1cc(Cl)cc2c1[nH]c1cnccc12)c1cccnc1 [PS-1145] | 0.6 DSS | 3.2 DSS | 2.1 DSS | 0 DSS | 0 DSS | 1.8 DSS |
| CCNc1nc(Nc2cc(F)c(C(=O)N3CCOCC3)cc2OC)ncc1C(F)(F)F [GNE-7915] | 0 DSS | 0 DSS | 0 DSS | 0 DSS | 0 DSS | 0 DSS |
| CC1=C2C[C@H]3[C@@H](CC[C@@H]4C[C@H](NS(C)(=O)=O)CC[C@@]43C)[C@@H]2CC[C@@]2(C1)O[C@@H]1C[C@H](C)CN[C@H]1[C@H]2C [Saridegib] | 3.1 DSS | 3.9 DSS | 4.2 DSS | 0 DSS | 0 DSS | 0 DSS |
| COc1cc2ncnc(Nc3ccc(F)c(Cl)c3)c2cc1NC(=O)/C=C/CN1CCCCC1 [Dacomitinib] | 7 DSS | 3.7 DSS | 8.3 DSS | 5.5 DSS | 0 DSS | 3.2 DSS |
| Cc1nc(NC(=O)N2CCC[C@H]2C(N)=O)sc1-c1ccnc(C(C)(C)C(F)(F)F)c1 [Alpelisib] | 0 DSS | 0 DSS | 0 DSS | 0 DSS | 0 DSS | 0.4 DSS |
| O=C(NOCCO)c1ccc2cncn2c1Nc1ccc(I)cc1F [GDC-0623] | 0 DSS | 0 DSS | 18.9 DSS | 7.5 DSS | 0 DSS | 19.2 DSS |
| CCCCOc1nc(N)c2c(n1)N(Cc1cccc(CN3CCCC3)c1)CC(=O)N2 [Vesatolimod] | 2.9 DSS | 0 DSS | 0 DSS | 0.4 DSS | 0 DSS | 0 DSS |
| CN[C@@H]1C[C@H]2O[C@@](C)([C@@H]1OC)n1c3ccccc3c3c4c(c5c6ccccc6n2c5c31)C(=O)N[C@H]4O [UCN-01] | 17 DSS | 17.3 DSS | 22.7 DSS | 19.6 DSS | 14.3 DSS | 17.7 DSS |
| CN(C)Cc1ccc(S(=O)(=O)n2ccc(/C=C/C(=O)NO)c2)cc1 [Resminostat] | 11 DSS | 10 DSS | 10.4 DSS | 18.3 DSS | 12.8 DSS | 15 DSS |
| COc1cccc(-c2ccc(NC(=O)C3=C(C(=O)O)CCC3)c(F)c2)c1 [Vidofludimus] | 1.5 DSS | 0.4 DSS | 1.9 DSS | 0 DSS | 1.6 DSS | 2 DSS |
| CNC(=O)c1ccc(N2C(=S)N(c3ccc(C#N)c(C(F)(F)F)c3)C(=O)C2(C)C)cc1F [Enzalutamide] | 0 DSS | 0 DSS | 1.3 DSS | 0 DSS | 0 DSS | 2.2 DSS |
| Cc1noc2c1-c1ccccc1C(c1ccc(Cl)cc1)=N[C@H]2CC(N)=O [CPI-0610] | 0 DSS | 8.5 DSS | 5.7 DSS | 10.9 DSS | 6.5 DSS | 13.8 DSS |
| CNC(=O)c1ccccc1Sc1ccc2c(/C=C/c3ccccn3)n[nH]c2c1 [Axitinib] | 8.7 DSS | 8.4 DSS | 7 DSS | 7.4 DSS | 5.6 DSS | 6.7 DSS |
| CC1(COc2ccc3c(c2)ncn3-c2ccc3cccc(N4CCC(N)CC4)c3n2)COC1 [Crenolanib] | 12.6 DSS | 10.5 DSS | 18 DSS | 4.7 DSS | 14.6 DSS | 5.5 DSS |
| CC(C)C[C@@H](C(=O)N[C@H](C(=O)OC1CCCC1)c1ccccc1)[C@H](O)C(=O)NO [Tosedostat] | 2 DSS | 1.3 DSS | 2.1 DSS | 14.5 DSS | 11.4 DSS | 6.5 DSS |
| C[C@@H](Nc1cc(F)cc(F)c1)c1cc(C(=O)N(C)C)cc2c(=O)cc(N3CCOCC3)oc12 [AZD-8186] | 8.7 DSS | 3.8 DSS | 6.5 DSS | 0 DSS | 0 DSS | 0.8 DSS |
| CNC(=O)c1ccc2cc([C@@]3(O)CCn4cncc43)ccc2c1 [Orteronel] | 0 DSS | 0 DSS | 0.5 DSS | 0 DSS | 0.3 DSS | 0 DSS |
